Results from ChEMBL document CHEMBL1201862, “PubChem BioAssay data set” (2004).
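Values below derive from 48-hour exposures of cells grown in 96-well plates, with endpoints linearly interpolated between the two concentrations bracketing the appropriate inhibition level. GI50 = concentration required for 50% inhibition of growth.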 The source made the active and inactive calls. Cut-off read from the data, not from the text of the source: active = GI50 up to about 1.1 µM and inactive = higher.

How the values were obtained:
Experiment in all cases: NCI-60 cell line screen, 48 h
T47D = system: T47D
MDA-N = system: MDA-N
PC-3 = system: PC-3
LOX IMVI = system: LOX IMVI
NCI-H226 = system: NCI-H226
SF-268 = system: SF-268
SNB-75 = system: SNB-75
Hs-578T = system: Hs-578T
SF-295 = system: SF-295
NCI-H522 = system: NCI-H522
HCC 2998 = system: HCC 2998
HT-29 = system: HT-29
786-0 = system: 786-0
RPMI-8226 = system: RPMI-8226
MDA-MB-231 = system: MDA-MB-231
DU-145 = system: DU-145
IGROV-1 = system: IGROV-1
KM-20L2 = system: KM-20L2
SNB-78 = system: SNB-78
HOP-18 = system: HOP-18

Measured: GI50

Cn1c(=O)c2c(nc3n2CCCC(=O)N3CCCCl)n(C)c1=O
inactive: T47D > 100 µM | MDA-N > 100 µM | PC-3 > 100 µM | LOX IMVI > 100 µM | NCI-H226 > 100 µM | SF-268 > 100 µM | SNB-75 > 100 µM | Hs-578T > 100 µM | SF-295 > 100 µM | NCI-H522 > 100 µM | HCC 2998 > 100 µM | HT-29 > 100 µM | 786-0 > 100 µM | RPMI-8226 > 100 µM | MDA-MB-231 > 100 µM | DU-145 > 100 µM | IGROV-1 > 100 µM

CCOc1ccc(NC(=O)CC2SC(N)=NC2=O)cc1 (configuration not stated)
inactive: LOX IMVI > 100 µM | NCI-H226 > 100 µM | SF-268 > 100 µM | SNB-75 > 100 µM | KM-20L2 > 100 µM | SF-295 > 100 µM | HCC 2998 > 100 µM | HT-29 > 100 µM | 786-0 > 100 µM | RPMI-8226 > 100 µM | IGROV-1 > 100 µM | SNB-78 > 100 µM

Cc1ccc(C2=Nn3c(nc4sc(-c5ccccc5)cc4c3=O)SC2)cc1
inactive: T47D > 100 µM | MDA-N > 100 µM | PC-3 > 100 µM | LOX IMVI > 100 µM | NCI-H226 > 100 µM | SF-268 > 100 µM | SNB-75 > 100 µM | Hs-578T > 100 µM | SF-295 > 100 µM | NCI-H522 > 100 µM | HCC 2998 > 100 µM | HT-29 > 100 µM | 786-0 > 100 µM | RPMI-8226 > 100 µM | MDA-MB-231 > 100 µM | DU-145 > 100 µM | IGROV-1 > 100 µM

CC(C)NC(=O)OCc1c(COC(=O)NC(C)C)n(C)c2c1ccc1sccc12
inactive: T47D 17.3 µM | MDA-N 17.4 µM | PC-3 11.5 µM | LOX IMVI 7.94 µM | NCI-H226 2.67 µM | SF-268 6.18 µM | SNB-75 14.4 µM | Hs-578T 13.6 µM | SF-295 10 µM | NCI-H522 3.65 µM | HCC 2998 15.2 µM | HT-29 24.2 µM | 786-0 6.35 µM | RPMI-8226 9.73 µM | MDA-MB-231 20.1 µM | DU-145 6.78 µM | IGROV-1 3.02 µM

C/C(=C/CO[Si](C)(C)C(C)(C)C)C(=O)N(C)c1ccccc1I
inactive: T47D 14.8 µM | MDA-N 17.7 µM | PC-3 14.1 µM | LOX IMVI 17.3 µM | NCI-H226 16.4 µM | SF-268 17.5 µM | SNB-75 19.1 µM | Hs-578T 18.2 µM | SF-295 16.5 µM | NCI-H522 15.6 µM | HCC 2998 14.3 µM | HT-29 10 µM | 786-0 17.1 µM | RPMI-8226 19.4 µM | MDA-MB-231 15.1 µM | DU-145 18.2 µM | IGROV-1 16 µM

CN/N=C(/Cc1occc(=O)c1O)C(=O)Nc1ccc(C)c(C)c1
inactive: LOX IMVI > 100 µM | NCI-H226 > 100 µM | SF-268 > 100 µM | KM-20L2 > 100 µM | SF-295 > 100 µM | NCI-H522 > 100 µM | HCC 2998 > 100 µM | HT-29 > 100 µM | 786-0 > 100 µM | RPMI-8226 > 100 µM | IGROV-1 > 100 µM | SNB-78 60.1 µM

CN(Cc1ccccc1)C(=NC#N)N(C)Cc1ccccc1
inactive: LOX IMVI > 100 µM | SF-268 > 100 µM | KM-20L2 > 100 µM | SF-295 > 100 µM | NCI-H522 > 100 µM | HCC 2998 > 100 µM | HT-29 > 100 µM | 786-0 > 100 µM | IGROV-1 > 100 µM | SNB-78 > 100 µM

CN(C)c1nc(N(C)C)nc(N(C)CN(C)c2ccc(Cl)cc2)n1
inactive: LOX IMVI > 100 µM | NCI-H226 > 100 µM | SF-268 > 100 µM | SNB-75 > 100 µM | SF-295 > 100 µM | NCI-H522 > 100 µM | HT-29 > 100 µM | IGROV-1 > 100 µM | SNB-78 > 100 µM

O=C1NC(=O)C2C(=O)NC(=O)C1C2(c1ccccc1)c1ccc(Cl)cc1 (configuration not stated)
inactive: LOX IMVI > 100 µM | NCI-H226 > 100 µM | SF-268 > 100 µM | SNB-75 > 100 µM | KM-20L2 > 100 µM | SF-295 > 100 µM | NCI-H522 > 100 µM | HCC 2998 > 100 µM | HT-29 > 100 µM | 786-0 > 100 µM | RPMI-8226 > 100 µM | IGROV-1 > 100 µM | SNB-78 > 100 µM

O=C(Nc1c(Cl)cc([N+](=O)[O-])cc1Cl)C(=O)C(C1OC(=O)c2ccccc21)[N+](=O)[O-] (configuration not stated)
inactive: LOX IMVI 81.7 µM | NCI-H226 > 100 µM | SF-268 > 100 µM | SNB-75 > 100 µM | KM-20L2 > 100 µM | SF-295 > 100 µM | HCC 2998 > 100 µM | HT-29 > 100 µM | 786-0 > 100 µM | RPMI-8226 89.9 µM | IGROV-1 > 100 µM | SNB-78 41.2 µM

COc1ccc(/C=N/n2cnc3c(c2=O)S/C(=C2/SC(=S)N(c4ccc(C)cc4)C2=O)N3c2ccccc2)cc1
inactive: LOX IMVI > 100 µM | NCI-H226 > 100 µM | SF-268 29.4 µM | SNB-75 > 100 µM | KM-20L2 > 100 µM | SF-295 11.6 µM | NCI-H522 52.4 µM | HCC 2998 > 100 µM | HT-29 > 100 µM | RPMI-8226 40.8 µM | IGROV-1 42.7 µM

NC12CC3CC(C1)CC(Cl)(C3)C2
inactive: LOX IMVI > 100 µM | SNB-75 > 100 µM | KM-20L2 > 100 µM | NCI-H522 > 100 µM | HCC 2998 > 100 µM | HT-29 > 100 µM | 786-0 > 100 µM | RPMI-8226 > 100 µM | IGROV-1 > 100 µM | SNB-78 > 100 µM

CCOC(=O)/C(=C\c1ccnc2ccccc12)P(=O)(OCC)OCC
inactive: T47D 3.18 µM | MDA-N 2.3 µM | PC-3 5.53 µM | LOX IMVI 1.57 µM | NCI-H226 10.5 µM | SF-268 2.53 µM | SNB-75 3.49 µM | Hs-578T 3.21 µM | SF-295 2.99 µM | NCI-H522 1.33 µM | HCC 2998 12.9 µM | HT-29 2.16 µM | 786-0 1.94 µM | RPMI-8226 2.67 µM | MDA-MB-231 2.11 µM | DU-145 2.71 µM | IGROV-1 1.6 µM

CCC1(C(=O)OC(C)(C)C)OC12C(C)CCCC2C (configuration not stated)
inactive: T47D 32.9 µM | MDA-N 56.8 µM | PC-3 57.9 µM | LOX IMVI 32.1 µM | NCI-H226 45 µM | SF-268 43.1 µM | SNB-75 32.9 µM | Hs-578T 90.2 µM | SF-295 38.4 µM | NCI-H522 24.5 µM | HCC 2998 18.3 µM | HT-29 39.5 µM | 786-0 40.6 µM | RPMI-8226 21.5 µM | MDA-MB-231 > 100 µM | DU-145 > 100 µM | IGROV-1 > 100 µM

CC(=O)OCC1OC(n2cc([N+](=O)[O-])c(=O)[nH]c2=O)C(OC(C)=O)C(OC(C)=O)C1OC(C)=O (configuration not stated)
inactive: HOP-18 43.2 µM | LOX IMVI > 100 µM | NCI-H226 42.2 µM | SF-268 > 100 µM | SNB-75 54.6 µM | KM-20L2 > 100 µM | SF-295 > 100 µM | NCI-H522 > 100 µM | HCC 2998 > 100 µM | HT-29 > 100 µM | 786-0 > 100 µM | RPMI-8226 > 100 µM | IGROV-1 > 100 µM

COc1ccc2c(c1)[n+]([O-])c(-c1c(Cl)cccc1Cl)c(N)[n+]2[O-]
inactive: LOX IMVI 66.1 µM | NCI-H226 79.6 µM | SF-268 40.6 µM | SNB-75 > 100 µM | KM-20L2 42.2 µM | SF-295 61 µM | NCI-H522 > 10 µM | HCC 2998 72.3 µM | HT-29 55.5 µM | 786-0 56.5 µM | RPMI-8226 80.4 µM | IGROV-1 47.4 µM | SNB-78 69.3 µM

CCOC(=O)C1=C(N)N(c2ccccc2)/C(=C(/C#N)c2nc3ccccc3[nH]2)S1
inactive: LOX IMVI > 100 µM | NCI-H226 > 100 µM | SF-268 80.9 µM | SNB-75 > 100 µM | KM-20L2 > 100 µM | SF-295 > 100 µM | NCI-H522 > 100 µM | HT-29 > 100 µM | 786-0 > 100 µM | IGROV-1 > 100 µM | SNB-78 > 100 µM

COc1cc([N+](=O)[O-])c(S(=O)(=O)O)cc1-n1nc(-c2ccccc2)n[n+]1-c1cc(S(=O)(=O)[O-])c([N+](=O)[O-])cc1OC
inactive: T47D > 100 µM | MDA-N > 100 µM | PC-3 > 100 µM | LOX IMVI > 100 µM | NCI-H226 > 100 µM | SF-268 > 100 µM | SNB-75 > 100 µM | Hs-578T > 100 µM | SF-295 > 100 µM | NCI-H522 > 100 µM | HCC 2998 > 100 µM | HT-29 > 100 µM | 786-0 > 100 µM | RPMI-8226 > 100 µM | MDA-MB-231 > 100 µM | DU-145 > 100 µM | IGROV-1 > 100 µM

O=S(=O)(O)c1cc(/N=[N+](\[O-])c2cc(S(=O)(=O)O)c3ccccc3c2)cc2ccccc12
inactive: T47D > 100 µM | MDA-N 20 µM | PC-3 > 100 µM | LOX IMVI 25.2 µM | NCI-H226 > 100 µM | SF-268 > 100 µM | SNB-75 16.3 µM | Hs-578T 33.5 µM | SF-295 35.6 µM | NCI-H522 26.2 µM | HCC 2998 > 100 µM | HT-29 > 100 µM | 786-0 > 100 µM | RPMI-8226 28.1 µM | MDA-MB-231 > 100 µM | DU-145 19.5 µM | IGROV-1 33.9 µM
